Data: US7732443B2, “Therapeutic substituted cyclopentanes” (priority 2008, dated 2010)

How the values were obtained:
Assay type in all cases: in vivo
normotensive dogs = assay: Intraocular pressure (IOP) in normotensive dogs
Experimental: Compounds from above are tested in vivo to measure its ability to reduce intraocular pressure. Compound 14a is tested in normotensive dogs.

[1] = test system: laser-induced hypertensive monkeys; assay: Intraocular pressure (IOP) in laser-induced hypertensive monkeys
[2] = test system: lashes and adjacent hairs of patients; assay: Lash and hair appearance in glaucoma patients treated in one eye only; conditions: glaucoma patient treated in one eye
Excerpt: In the course of treating patients having glaucoma, treatment may only be appropriate in one eye. […] The lash appearance on the lids of the treated eyes would have appeared quite attractive if it represented a bilateral phenomenon. As a result of its asymmetric nature, the long lashes on one side could be construed as disturbing from a cosmetic standpoint. A systemic examination was preformed as a result of the asymmetric phenomenon. It soon became apparent that this altered appearance was not an isolated finding. […] Definite differences could be identified to varying degrees in the lashes and adjacent hairs of all patients who were taking the drug on a unilateral basis for longer than 6 months.
The changes in the lashes were apparent on gross inspection in several patients once attention was focused on the issue. In those with light colored hair and lashes, the differences were only seen easily with the aid of the high magnification and lighting capabilities of the slit lamp biomicroscope. In the course of glaucoma follow-up examination, attention is generally immediately focused on the eye itself. As a result of the high power magnification needed only one eye is seen at a time and the eye is seen at a high enough power that the lashes are not in focus. […]

SMILES | intraocular pressure (IOP) change from baseline (normotensive dogs) | intraocular pressure (IOP) change from baseline [1] | lash appearance, treated eye versus non-treated eye [2]
CCCCCC(O)c1ccc(C2C(O)CC(Cl)C2CC=CCCCC(=O)OCCO)cc1 (centres unmarked) [Compound 68a] | decreases from baseline | decreases from baseline | 
CCCCCC(O)c1ccc(C2C(O)CC(F)C2CC=CCCCC(=O)OCCN2CCOCC2)cc1 (centres unmarked) [Compound 40b] | decreases from baseline | decreases from baseline | 
CCCCCC(O)c1ccc(C2C(O)CC(F)C2CC=CCCCC(=O)OCCO)cc1 (centres unmarked) [Compound 40a] | decreases from baseline | decreases from baseline | 
CCCCCCc1ccc(C2C(O)CC(Cl)C2CC=CCCCC(=O)OCCO)cc1 (centres unmarked) [Compound 63a] | decreases from baseline | decreases from baseline | 
CCCCCC(O)c1ccc(C2C(O)CC(Cl)C2CC=CCCCC(=O)OCCO)cc1 (centres unmarked) [Compound 51a] | decreases from baseline | decreases from baseline | 
CCCCCC(O)c1ccc(C2C(O)CC(Cl)C2CCCc2ncc(C(=O)OCCN3CCOCC3)s2)cc1 (centres unmarked) [Compound 34b] | decreases from baseline | decreases from baseline | 
CCCCCC(O)c1ccc(C2C(O)CC(Cl)C2Cc2cccc(CCC(=O)OCCN3CCOCC3)c2)cc1 (centres unmarked) [Compound 25b] | decreases from baseline | decreases from baseline | 
CCNC(=O)CCC/C=C\C[C@@H]1[C@@H](/C=C/[C@@H](O)CCc2ccccc2)[C@H](O)C[C@@H]1O [bimatoprost] |  |  | longer, thicker, and fuller in the treated eye than in the non-treated eye
CCCCCC(O)c1ccc(C2C(O)CC(Cl)C2CC=CCCCC(=O)OCCN2CCOCC2)cc1 (centres unmarked) [Compound 46b] | decreases from baseline | decreases from baseline | 
CCCCCC(O)c1ccc(C2C(O)CC(Cl)C2CC=CCCCC(=O)OCCO)cc1 (centres unmarked) [Compound 46a] | decreases from baseline | decreases from baseline | 
CCCCCC(O)c1ccc(C2C(O)CC(Cl)C2CCCc2ncc(C(=O)OCCO)s2)cc1 (centres unmarked) [Compound 34a] | decreases from baseline | decreases from baseline | 
CCCCCC(O)c1ccc(C2C(O)CC(Cl)C2CC=CCCCC(=O)OCCN2CCOCC2)cc1 (centres unmarked) [Compound 68b] | decreases from baseline | decreases from baseline | 
CCCCCCc1ccc(C2C(O)CC(Cl)C2CC=CCCCC(=O)OCCN2CCOCC2)cc1 (centres unmarked) [Compound 63b] | decreases from baseline | decreases from baseline | 
CCCCCC(O)c1ccc(C2C(O)CC(Cl)C2CC=CCCCC(=O)OCCN2CCOCC2)cc1 (centres unmarked) [Compound 51b] | decreases from baseline | decreases from baseline | 
CCCCCC(O)c1ccc(C2C(O)CC(Cl)C2Cc2cccc(CCC(=O)OCCO)c2)cc1 (centres unmarked) [Compound 25a] | decreases from baseline | decreases from baseline | 
